From article PMC9284491 (Nature Communications, 2022)

Experiment: Treatment-emergent adverse events (MedDRA, NCI-CTCAE v4.03), safety populations
Format: in vivo, human
Conditions: Part B, 400 mg QD (N = 49)
Protocol: Overall safety in Parts A and B was assessed by tabulating TEAEs, coded using the Medical Dictionary for Regulatory Activities (MedDRA) version 22.1, and graded according to NCI-CTCAE v4.03 criteria. TEAEs were classified as related or unrelated to amcenestrant therapy based upon the local investigating physician’s clinical judgment. The safety population included all patients exposed to at least one dose of the study treatment. Results were analyzed using descriptive statistics.

O=C(O)c1ccc2c(c1)CCCC(c1ccc(Cl)cc1Cl)=C2c1ccc(O[C@H]2CCN(CCCF)C2)cc1 [amcenestrant, 6-(2,4-Dichlorophenyl)−5-[4-[(3S)−1-(3-fluoropropyl)pyrrolidin-3-yl]oxyphenyl]−8,9-dihydro-7H-benzo[7]annulene-2-carboxylic acid]
Back pain, TEAEs, All grades: 5 (10.2) n (%)
Back pain, TEAEs, Grade 1: 3 (6.1) n (%)
Back pain, TEAEs, Grade 2: 2 (4.1) n (%)
Back pain, TEAEs, Grade ≥3: 0 n (%)
Back pain, Treatment-related TEAEs, All Grades: 0 n (%)
Back pain, Treatment-related TEAEs, Grade 1: 0 n (%)
Back pain, Treatment-related TEAEs, Grade 2: 0 n (%)
Back pain, Treatment-related TEAEs, Grade ≥3: 0 n (%)
Constipation, TEAEs, All grades: 14 (28.6) n (%)
Constipation, TEAEs, Grade 1: 12 (24.5) n (%)
Constipation, TEAEs, Grade 2: 2 (4.1) n (%)
Constipation, TEAEs, Grade ≥3: 0 n (%)
Constipation, Treatment-related TEAEs, All Grades: 3 (6.1) n (%)
Constipation, Treatment-related TEAEs, Grade 1: 2 (4.1) n (%)
Constipation, Treatment-related TEAEs, Grade 2: 1 (2.0) n (%)
Constipation, Treatment-related TEAEs, Grade ≥3: 0 n (%)
Cough, TEAEs, All grades: 4 (8.2) n (%)
Cough, TEAEs, Grade 1: 4 (8.2) n (%)
Cough, TEAEs, Grade 2: 0 n (%)
Cough, TEAEs, Grade ≥3: 0 n (%)
Cough, Treatment-related TEAEs, All Grades: 1 (2.0) n (%)
Cough, Treatment-related TEAEs, Grade 1: 1 (2.0) n (%)
Cough, Treatment-related TEAEs, Grade 2: 0 n (%)
Cough, Treatment-related TEAEs, Grade ≥3: 0 n (%)
Decreased appetite, TEAEs, All grades: 7 (14.3) n (%)
Decreased appetite, TEAEs, Grade 1: 5 (10.2) n (%)
Decreased appetite, TEAEs, Grade 2: 2 (4.1) n (%)
Decreased appetite, TEAEs, Grade ≥3: 0 n (%)
Decreased appetite, Treatment-related TEAEs, All Grades: 2 (4.1) n (%)
Decreased appetite, Treatment-related TEAEs, Grade 1: 2 (4.1) n (%)
Decreased appetite, Treatment-related TEAEs, Grade 2: 0 n (%)
Decreased appetite, Treatment-related TEAEs, Grade ≥3: 0 n (%)
Depression, TEAEs, All grades: 3 (6.1) n (%)
Depression, TEAEs, Grade 1: 3 (6.1) n (%)
Depression, TEAEs, Grade 2: 0 n (%)
Depression, TEAEs, Grade ≥3: 0 n (%)
Depression, Treatment-related TEAEs, All Grades: 2 (4.1) n (%)
Depression, Treatment-related TEAEs, Grade 1: 2 (4.1) n (%)
Depression, Treatment-related TEAEs, Grade 2: 0 n (%)
Depression, Treatment-related TEAEs, Grade ≥3: 0 n (%)
Diarrhea, TEAEs, All grades: 8 (16.3) n (%)
Diarrhea, TEAEs, Grade 1: 5 (10.2) n (%)
Diarrhea, TEAEs, Grade 2: 2 (4.1) n (%)
Diarrhea, TEAEs, Grade ≥3: 1 (2.0) n (%)
Diarrhea, Treatment-related TEAEs, All Grades: 1 (2.0) n (%)
Diarrhea, Treatment-related TEAEs, Grade 1: 1 (2.0) n (%)
Diarrhea, Treatment-related TEAEs, Grade 2: 0 n (%)
Diarrhea, Treatment-related TEAEs, Grade ≥3: 0 n (%)
Dry skin, TEAEs, All grades: 3 (6.1) n (%)
Dry skin, TEAEs, Grade 1: 2 (4.1) n (%)
Dry skin, TEAEs, Grade 2: 1 (2.0) n (%)
Dry skin, TEAEs, Grade ≥3: 0 n (%)
Dry skin, Treatment-related TEAEs, All Grades: 1 (2.0) n (%)
Dry skin, Treatment-related TEAEs, Grade 1: 1 (2.0) n (%)
Dry skin, Treatment-related TEAEs, Grade 2: 0 n (%)
Dry skin, Treatment-related TEAEs, Grade ≥3: 0 n (%)
Dyspnea, TEAEs, All grades: 8 (16.3) n (%)
Dyspnea, TEAEs, Grade 1: 6 (12.2) n (%)
Dyspnea, TEAEs, Grade 2: 2 (4.1) n (%)
Dyspnea, TEAEs, Grade ≥3: 0 n (%)
Dyspnea, Treatment-related TEAEs, All Grades: 1 (2.0) n (%)
Dyspnea, Treatment-related TEAEs, Grade 1: 1 (2.0) n (%)
Dyspnea, Treatment-related TEAEs, Grade 2: 0 n (%)
Dyspnea, Treatment-related TEAEs, Grade ≥3: 0 n (%)
Edema peripheral, TEAEs, All grades: 3 (6.1) n (%)
Edema peripheral, TEAEs, Grade 1: 3 (6.1) n (%)
Edema peripheral, TEAEs, Grade 2: 0 n (%)
Edema peripheral, TEAEs, Grade ≥3: 0 n (%)
Edema peripheral, Treatment-related TEAEs, All Grades: 1 (2.0) n (%)
Edema peripheral, Treatment-related TEAEs, Grade 1: 1 (2.0) n (%)
Edema peripheral, Treatment-related TEAEs, Grade 2: 0 n (%)
Edema peripheral, Treatment-related TEAEs, Grade ≥3: 0 n (%)
Fatigue, TEAEs, All grades: 12 (24.5) n (%)
Fatigue, TEAEs, Grade 1: 8 (16.3) n (%)
Fatigue, TEAEs, Grade 2: 2 (4.1) n (%)
Fatigue, TEAEs, Grade ≥3: 2 (4.1) n (%)
Fatigue, Treatment-related TEAEs, All Grades: 2 (4.1) n (%)
Fatigue, Treatment-related TEAEs, Grade 1: 2 (4.1) n (%)
Fatigue, Treatment-related TEAEs, Grade 2: 0 n (%)
Fatigue, Treatment-related TEAEs, Grade ≥3: 0 n (%)
Gastroesophageal reflux disease, TEAEs, All grades: 4 (8.2) n (%)
Gastroesophageal reflux disease, TEAEs, Grade 1: 4 (8.2) n (%)
Gastroesophageal reflux disease, TEAEs, Grade 2: 0 n (%)
Gastroesophageal reflux disease, TEAEs, Grade ≥3: 0 n (%)
Gastroesophageal reflux disease, Treatment-related TEAEs, All Grades: 3 (6.1) n (%)
Gastroesophageal reflux disease, Treatment-related TEAEs, Grade 1: 3 (6.1) n (%)
Gastroesophageal reflux disease, Treatment-related TEAEs, Grade 2: 0 n (%)
Gastroesophageal reflux disease, Treatment-related TEAEs, Grade ≥3: 0 n (%)
Headache, TEAEs, All grades: 3 (6.1) n (%)
Headache, TEAEs, Grade 1: 3 (6.1) n (%)
Headache, TEAEs, Grade 2: 0 n (%)
Headache, TEAEs, Grade ≥3: 0 n (%)
